Drawing on patent US5424334A, “Peptide mimetic compounds useful as platelet aggregation inhibitors” (G. D. Searle & Co., priority 1991, dated 1995), this text covers IC50 for nine compounds.

Where a name gives a salt, the structure may show the parent alone.

The assay has as its system Dog PRP (platelet aggregation). Nature of the assay: In-vitro platelet aggregation in PRP (ADP-induced). Conditions: Canis lupus familiaris, adenosine 5'diphosphate (ADP) induced, by linear regression of dose response curve. The assay is classed as cell-based. The protocol: In-Vitro Platelet Aggregation in PRP
Healthy male or female dogs were fasted for 8 hours prior to drawing blood; then 30 ml whole blood was collected using a butterfly needle and 30 cc plastic syringe with 3 ml of 0.129M buffered sodium citrate (3.8%). The syringe was rotated carefully as blood was drawn to mix the citrate. Platelet-rich plasma (PRP) was prepared by centrifugation at 975× g for 3.17 minutes at room temperature, allowing the centrifuge to coast to a stop without braking. The PRP was removed from the blood with a plastic pipette and placed in a plastic capped, 50 ml Corning conical sterile centrifuge tube which was held at room temperature. Platelet poor plasma (PPP) was prepared by centrifuging the remaining blood at 2000× g for 15 minutes at room temperature allowing the centrifuge to coast to a stop without braking. The PRP was adjusted with PPP to a count of 2-3×10^8 platelets per ml. 400 μl of the PRP preparation and 50 μl of the compound to be tested or saline were preincubated for 1 minute at 37° C. in a BioData aggregometer (BioData, Horsham, Pa.). 50 μl of adenosine 5'diphosphate (ADP) (50 μm final concentration) was added to the cuvettes and the aggregation was monitored for 1 minute. All compounds are tested in duplicate. Results are calculated as follows:
Percent of control=[(maximal OD minus initial OD of compound) divided by (maximal OD minus initial OD of control saline)]×100. The % inhibition=100-(percent of control).
In Table A, two readings given in a single box indicate that two trials, rather than a single trial, were run for that particular compound in that particular assay.

`N=C(N)c1ccc(CCCCNC(=O)[C@@H](CC(=O)O)NC(=O)OCc2ccccc2)cc1` [Compound 52513, 4-[[4-[4-(aminoiminomethyl)phenyl]butyl]amino]-4-oxo-3(R)-[[(Phenylmethoxy)carbonyl]amino]butanoic acid]: the midpoint of inhibition, the IC50, lay at 3 µM.

Regarding `N=C(N)c1ccc(CCCCNC(=O)[C@@H](CCC(=O)O)NC(=O)OCc2ccccc2)cc1` [Compound 52809, 5-[[4-[4-(aminoiminomethyl)phenyl]butyl]amino]-5-oxo-4(R)-[[(phenylmethoxy)carbonyl]amino]pentanoic acid], the midpoint of inhibition, the IC50, lay at 1.8 µM. Take `N=C(N)c1ccc(CCCCNC(=O)[C@H](CCC(=O)O)NC(=O)OCc2ccccc2)cc1` [Compound 52828, 5-[[4-[4-(aminoiminomethyl)phenyl]butyl]amino]-5-oxo-4(S)-[[(phenylmethoxy)carbonyl]amino]pentanoic acid]: the IC50 (in general, the concentration needed to halve the response being measured) amounted to 4.2 µM.

For the compound `Cc1ccc(S(=O)(=O)N[C@H](CC(=O)O)C(=O)NCCCCc2ccc(C(=N)N)cc2)cc1` [Compound 53010, 4-[[4-[4-(aminoiminomethyl)phenyl]butyl]amino]-4-oxo-3R-[[(4-methylphenyl)sulfonyl]amino]butanoic acid], the IC50 worked out at 6 µM. The compound `CCOC(=O)CC[C@@H](NC(=O)OCc1ccccc1)C(=O)NCCCCc1ccc(C(=N)N)cc1` [Compound 53033, ethyl 5-[[4-[4-(aminoiminomethyl)phenyl]butyl]amino]-5-oxo-4R-[[(phenylmethoxy)carbonyl]amino]pentanoate, monohydrochloride] showed an IC50 of 7 µM.

`CS(=O)(=O)N[C@H](CCC(=O)O)C(=O)NCCCCc1ccc(C(=N)N)cc1` [Compound 53065, 5-[[4-[4-(aminoiminomethyl)phenyl]butyl]amino]-5-oxo-4(R)-methylsulfonylaminopentanoic acid] registered an IC50 of 3.5 µM. As to `N=C(N)c1ccc(CCCCNC(=O)[C@H](CCC(=O)O)NC(=O)CCc2ccccc2)cc1` [Compound 53112, 5-[[4-[4-(aminoiminomethyl)phenyl]butyl]amino]-5-oxo-4S-[1-oxo-3-phenylpropylamino]pentanoic acid], the IC50 came out at 1.9 µM.

In turn, `N=C(N)c1ccc(CCCCNC(=O)[C@@H](CC(=O)O)NC(=O)CCc2ccccc2)cc1` [Compound 53143, 4-[[4-[4-(aminoiminomethyl)phenyl]butyl]amino]-4-oxo-3R-[(1-oxo-3-phenylpropyl)amino]butanoic acid] displayed an IC50 of 4.1 µM. The result for `N=C(N)c1ccc(C#CCCCNC(=O)[C@@H](CCC(=O)O)NC(=O)OCc2ccccc2)cc1` [Compound 53314, 5-[[5-[4-(aminoiminomethyl)phenyl]-4-pentynyl]amino]-5-oxo-4R-[[(phenylmethoxy)carbonyl]amino]pentanoic acid] reads 2 µM.
